From US7468462B2, “Therapeutic agents for the treatment of cancer, metabolic diseases and skin disorders” (Auspex Pharmaceuticals, priority 2004, dated 2008)

Biological target: T1, RAR-α (Homo sapiens, UniProt P10276)
T1 construct: The Plasmid pGEG-hRAR-α for full-length RAR-α expression; made in house; host or cells: E. coli BL21 (DE3)
T1 sequence (P10276 1-462): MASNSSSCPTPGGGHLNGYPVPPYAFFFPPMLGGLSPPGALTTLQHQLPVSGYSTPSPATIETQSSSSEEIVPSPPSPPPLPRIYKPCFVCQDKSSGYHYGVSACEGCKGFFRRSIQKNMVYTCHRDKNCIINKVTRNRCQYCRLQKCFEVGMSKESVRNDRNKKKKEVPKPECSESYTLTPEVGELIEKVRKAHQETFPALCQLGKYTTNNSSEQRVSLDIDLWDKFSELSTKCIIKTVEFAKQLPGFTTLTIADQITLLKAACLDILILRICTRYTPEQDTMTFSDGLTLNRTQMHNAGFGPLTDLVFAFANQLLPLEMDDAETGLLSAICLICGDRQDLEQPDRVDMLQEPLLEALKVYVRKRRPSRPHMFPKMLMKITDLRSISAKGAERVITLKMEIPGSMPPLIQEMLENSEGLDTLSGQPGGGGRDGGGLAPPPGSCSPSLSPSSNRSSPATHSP
Experiment: Competitive radioligand (tritium labeled tRA) hydroxylapatite binding assay in E. coli expressed RAR-α
Settings: read-out: Kd (mircomolar)
Experimental: After correcting for non-specific binding, IC50 values were determined.

| SMILES | Kd |
| --- | --- |
| COc1ccc(-c2ccc3cc(C(=O)O)ccc3c2)cc1C12CC3CC(CC(C3)C1)C2 [Adapalene] | 0.3 µM |
| COc1ccc(-c2ccc3cc(C4=C(O)CCC4=O)ccc3c2)cc1C12CC3CC(CC(C3)C1)C2 [Example 8, 2-[6-(3-Adamantan-1-yl-4-methoxyphenyl)-naphthalen-2-yl]-3-hydroxy-cyclopent-2-enone] | 16 µM |
